Structures can show the parent of a compound that is named as a salt. Where two headings read alike, the source gives them in different places.
Columns and labels:
[1] = tested on: 5-HETE synthesis by rat glycogen elicited polymorphonuclear leukocytes; assay: Inhibition of synthesis of 5-HETE by rat glycogen elicited polymorphonuclear leukocytes (Example 10); format: cell-based, rat (female Wistar); conditions: Leukocyte, [14C]5-HETE synthesis, rat PMN; for IC50: read-out: 50% Inhibitory Concentration (IC50)
Method: (§1) The assay is carried out as follows:
Peritoneal PMN are obtained from female Wistar rats (150-250 g) that received an i.p. injection of 6% glycogen (10 ml). After 24 hours, rats are killed by CO2 asphyxiation and peritoneal cells are harvested by peritoneal lavage using Ca^++ and Mg^++ free Hanks' balanced salt solution (HBSS). The peritoneal exudate is centrifuged at 400 g for 10 minutes. After centrifugation, the lavaged fluid is removed and the cell pellet is […] in HBSS containing Ca^++ and Mg^++ and 10 mM L-cystein at a concentration of 2×10^7 cells/ml. To 1 ml portions of cell suspens, test drugs or vehicle are added and incubated at 37° C. for 10 minutes. Following this preincubation, the calcium ionophore (10 μM), A23187, is added together with 0.5 μCi [^14 C] arachidonic acid and further incubated for 10 minutes. The reaction is stopped by the addition of ice cold water (3 ml) and acidifying to pH 3.5. Lipoxygenase products are then extracted twice into diethyl ether. The pooled ether extracts are evaporated to dryness under nitrogen and the residue is redissolved in a small volume of methanol and spotted on aluminum backed pre-coated thin layer chromatographic plates. The samples are then co-chromatographed with authentic reference 5-HETE in the solvent system--hexane:ether:acetic acid (50:50:3). After chromatography, the areas associated with 5-HETE standard are identified by autoradiography, cut out and quantitated by liquid scintillation.
Results are expressed as % inhibition of [^14 C]5-HETE synthesis. [formula]

[2] = tested on: LTD4 induced bronchoconstriction; assay: In vivo inhibition of bronchospasm induced in guinea pigs by exogenously administered leukotrienes (Example 11); parameters: species or system guinea pig (male Hartley); conditions: 10 minutes before induction of bronchospasm (LTD4), guinea pig; for inhibition in vivo at 50 mg/kg / inhibition in vivo at 25 mg/kg: Cavia porcellus, read-out: % Inhibition of Max AUC
[3] = tested on: ovalbumin induced bronchospasm; assay: In vivo inhibition of ovalbumin induced bronchospasm in sensitized guinea pigs mediated by endogenous mediators (Example 12); parameters: species or system guinea pig (male Hartley); conditions: Cavia porcellus, 10 minutes before ovalbumin challenge, guinea pig, read-out: % Inhibition of Max AUC
Method: The assay of this Example measures the in vivo ability of the compounds of the invention to inhibit the bronchospasm induced in guinea pigs by endogenous mediators of the bronchoconstriction.
as §1
Male Hartley strain guinea pigs weighing 250-350 g are sensitized to chicken ovalbumin (OA) (10 mg i.p.) on days 1 and 3 and used starting on day 26. The animals are anesthetized with pentobarbital sodium (50 mg/kg, i.p.), bilateral vagotomy is performed, and the jugular vein is cannulated for injection of drugs and the carotid artery for monitoring blood pressure. The trachea is cannulated for artificial ventilation by miniature Starling pump and for indirect measurement of respiratory volume changes as described, infra. Succinylcholine (2 mg/kg, i.v.) is administered to arrest spontaneous respiration. A cyclooxygenase inhibitor, indomethacin (10 mg/kg in tris buffer, i.v. at 9 min.) is administered to shunt arachidonic metabolism to lipoxygenase pathways. One minute later, chlorpheniramine (1.0 mg/kg in saline, i.v.) is given to attenuate the histaminic component of anaphylactic bronchoconstriction. Test drugs (dissolved in propylene glycol, polyethylene glycol or saline) are administered either intraduodenally or by aerosol at 2 or 10 minutes before antigen challenge. Anaphylactic bronchoconstriction is induced by administration by breaths of aerosolized OA (1%) or by intravenous administration of 0.1-0.3 mg/kg OA in saline. Control animals receive solvent (2 ml/kg i.d. or appropriate aerosol) in place of drug.
Respiratory volume changes are determined by a calibrated piston whose travel is recorded, via a linear transducer, on a Beckman Dynograph recorder. Maximal bronchoconstrictor volume is determined by clamping off the trachea at the end of the experiment. Overflow volumes at minutes 1, 3 and 5 are obtained from the recorded charts.
Area under the volume overflow curve (AUC) is estimated, using the overflow values at 1, 3 and 5 minutes, and expressed as a percentage of the maximal overflow AUC (equation 1): [formula] Drug effects are reported as percent inhibition of % max AUC values obtained from appropriate control animals (equation 2): [formula] Students t-test for unpaired data is used to determine statistical significance. Dose response curves are generated and ED50 doses are interpolated from the regression lines.
Results for compounds of the invention in this assay, using LTD4 for induction of bronchospasm, are given below: […]

| Compound | inhibition at 50 µM [1] | inhibition in vivo at 50 mg/kg ([2]; 50 mg/kg intraduodenal) | inhibition in vivo at 25 mg/kg ([2]; 25 mg/kg intraduodenal) | further results |
| --- | --- | --- | --- | --- |
| CCN(CC)C(=O)N(C)C[C@H](O)c1cccc(OCc2nc3ccccc3s2)c1 [Example 1, (1R)-1-[3-[(2-Benzthiazoyl)-methoxy]phenyl]-2-(N-methyl-N-diethylcarbamoyl)amino ethanol] | > 50% | 59.2% |  | IC50 [1]: 40.4 µM |
| CCN(CC)C(=O)N(C)C[C@H](O)c1cccc(OCc2ccc3ccccc3n2)c1 [Example 2B, (1R)-1-[3-[(2-Quinolinyl)methoxy]phenyl]-2-(N-methyl-N-diethylcarbamoyl)amino ethanol] |  |  |  | inhibition in vivo at 50 mg/kg ([3]; 50 mg/kg intraduodenal): 75.8% |
| CN(C)C(=O)N(C)C[C@H](O)c1cccc(OCc2ccc3ccccc3n2)c1 [Example 2F, (1R)-1-[3-[(2-Quinolinyl)methoxy]phenyl]-2-(N-methyl-N-dimethylcarbamoyl)amino ethanol] | > 50% | 92.6% |  |  |
| CN(C[C@H](O)c1cccc(OCc2ccc3ccccc3n2)c1)C(=O)c1ccncc1 [Example 2D, (1R)-1-[3-[(2-Quinolinyl)methoxy]phenyl]-2-[N-methyl-N-(4-pyridinoyl)]amino ethanol] | < 50% | 43.9% |  |  |
| CCOC(=O)N(C)C[C@H](O)c1cccc(OCc2ccc3ccccc3n2)c1 [Example 2K, (1R)-1-[3-[(2-Quinolinyl)methoxy]phenyl]-2-(N-methyl-N-ethylcarboxylate)amino ethanol] |  | 70.6% |  |  |
| CCOC(=O)CC(=O)NCC(O)c1cccc(OCc2ccc3ccccc3n2)c1 (racemic) [Example 7C, 3-[[2-Hydroxy-2-[3-(2-quinolinylmethoxy)phenyl]ethyl]amino]-3-oxopropanoicacid, ethyl ester] |  |  | 24.9% |  |
| C#CCN(C)C[C@H](O)c1cccc(OCc2ccc3ccccc3n2)c1 [Example 8, α-[[Methyl-(2-propynyl)amino]methyl]-3-(2-quinolinylmethoxy)benzene methanol] |  |  | 41.2% |  |
| CCOC(=O)NCC(O)c1cccc(OCc2ccc3ccccc3n2)c1 (stereo not shown) [Example 2L, 1-[3-[(2-Quinolinyl)methoxy]phenyl]-2-(N-ethylcarboxylate)amino ethanol] |  |  | 35.6% |  |
| CCNC(=O)O[C@@H](CN(C)C(=O)NCC)c1cccc(OCc2ccc3ccccc3n2)c1 [Example 5, Ethylcarbamic acid (1R)-2-[[(ethylamino)carbonyl]methylamino]-1-[3-(2-quinolinylmethoxy)phenyl]ethyl ester, hydrochloride] |  | 54.2% |  | inhibition in vivo at 50 mg/kg ([2]; po, 50 mg/kg peroral): 18.6%; inhibition in vivo at 50 mg/kg ([3]; 50 mg/kg intraduodenal): 80.2% |
| CCNC(=O)N(C)C[C@H](O)c1cccc(OCc2ccc3ccccc3n2)c1 [Example 3] |  | 81.7% | 94.9% | inhibition in vivo at 50 mg/kg ([3]; po, 50 mg/kg peroral): 46.4% |
| CN(C)S(=O)(=O)N(C)C[C@H](O)c1cccc(OCc2ccc3ccccc3n2)c1 [Example 2H, (1R)-1-[3-[(2-Quinolinyl)methoxy]phenyl]-2-(N-methyl-N-dimethylsulfamoyl)amino ethanol] |  | 56% |  | inhibition in vivo at 50 mg/kg ([2]; po, 50 mg/kg peroral): 25.4%; inhibition in vivo at 50 mg/kg ([3]; 50 mg/kg intraduodenal): 2.5% |
| CCN(CC)C(=O)N(CC)C[C@H](O)c1cccc(OCc2ccc3ccccc3n2)c1 [Example 2G, (1R)-1-[3-[(2-Quinolinyl)methoxy]phenyl]-2-(N-ethyl-N-diethylcarbamoyl)amino ethanol] | > 50% | 65.1% |  |  |
| N-[2-Hydroxy-2-[3-(2-quinolinyl)phenyl]ethyl]benzamide [Example 7A] |  |  |  | % Inhibition of Max AUC ([2]; 25 mg/kg intraduodenal): 18.1% |
| CCN(CC)C(=O)N(C)C[C@@H](O)c1cccc(OCc2ccc3ccccc3n2)c1 [Example 2J, (1S)-1-[3-[(2-Quinolinyl)methoxy]phenyl]-2-(N-methyl-N-diethylcarbamoyl)amino ethanol] |  |  |  | inhibition in vivo at 25 mg/kg ([3]; 25 mg/kg intraduodenal): 81.2% |
| O=C(NCC(O)c1cccc(OCc2ccc3ccccc3n2)c1)c1cccs1 (stereo not shown) [Example 7B, N-[2-Hydroxy-2-[3-(2-quinolinylmethoxy)phenyl]ethyl]-2-thiophene carboxamide] |  |  | 81.9% |  |
| O=C(NCC(O)c1cccc(OCc2ccc3ccccc3n2)c1)c1ccccn1 (stereo not shown) [Example 6, N-[2-Hydroxy-2-[3-(2-quinolinylmethoxy)phenyl]ethyl]-2-pyridine carboxamide] |  |  | 19.8% |  |
| COC(=O)[C@@H]1CCCN1C(=O)N(C)C[C@H](O)c1cccc(OCc2ccc3ccccc3n2)c1 [Example 2I, (S)-1-[[[(R)-2-Hydroxy-2-[3-(2-quinolinylmethoxy)phenyl]ethyl]methylamino]carbonyl]-2-pyrrolidine carboxylic acid, methyl ester, hydrochloride] |  | 71.2% |  | inhibition in vivo at 50 mg/kg ([3]; 50 mg/kg intraduodenal): 22.5% |
| CCC(=O)N(C)C[C@H](O)c1cccc(OCc2nc3ccccc3n2C)c1 [Example 2C, (1R)-1-[3-[(1-Methyl-2-benzimidazoyl)methoxy]phenyl]-2-(N-methyl-N-propanoyl)amino ethanol] | < 50% | 63.9% |  | inhibition in vivo at 50 mg/kg ([3]; 50 mg/kg intraduodenal): 65.6% |
| CCN(CC)C(=O)N(C)C[C@H](O)c1cccc(OCc2nc3ccccc3n2C)c1 [Example 2A, (1R)-1-[3-[(1-Methyl-2-benzimidazoyl)methoxy]phenyl]-2-(N-methyl-N-diethylcarbamoyl)amino ethanol] | > 50% | 77.2% |  | IC50 [1]: 16.4 µM; inhibition in vivo at 50 mg/kg ([3]; 50 mg/kg intraduodenal): 83.4% |
| CN(C[C@H](O)c1cccc(OCc2ccc3ccccc3n2)c1)C(=O)N(c1ccccc1)c1ccccc1 [Example 2E, (1R)-1-[3-[(2-Quinolinyl)methoxy]phenyl]-2-(N-methyl-N-diphenylcarbamoyl)amino ethanol, hydrochloride] | > 50% | 21% |  |  |
| O=S(=O)(NCC(O)c1cccc(OCc2ccc3ccccc3n2)c1)C(F)(F)F (stereo not shown) [Example 9, 1,1,1-Trifluoro-N-[2-hydroxy-2-[3-(2-quinolinylmethoxy)phenyl]ethyl]methanesulfonamide] |  |  | 84.8% | inhibition in vivo at 25 mg/kg ([2]; po, 25 mg/kg peroral): 75.6% |

Reference: patent publication US4876346A, “Quinoline compounds” (American Home Products Corporation, priority 1986, dated 1989)
